# Assay results published in patent US8226986B2 (priority 2006, dated 2012).
# Like-named read-outs stand apart in the source and are kept apart here. Marks after values point to notes of the source that are not given here.
# Assays:
# erectile dysfunction = details: 0.25-80 umol/kg, Intracaver., before experiment; cited from earlier work
# cardioprotectant = details: 2.8 umol/kg IV, time zero; cited from earlier work
# Cerebral Ischemia = details: 0.18 mmol/kg IP, 24 hours after MCAO; cited from earlier work
# vascular calcification = details: 2.8 or 14 uM/day, daily; cited from earlier work
# [1] = system: Gastric injury caused by NSAIDS; details: 25, 50, 100, or 150 mol/kg IP, immediately prior; cited from earlier work
# [2] = system: aortic occlusion-induced ischemia/reperfusion (I/R) injury; format: in vivo, pig; details: median, initial study
# [3] = system: myocardial ishemia-reperfusion injury; details: 3 mg/kg IP, 15 min before LAD; cited from earlier work
# inflammation = details: 1, 5 and 10 mg/kg IP, 1-6 hours before study; cited from earlier work
# [4] = system: neutrophil adhesion, leukocyte-mediated inflam.; details: cited from earlier work
# [5] = system: myocardial ischemia-reperfusion injury; parameters: dose or concentration left out as unconfirmed; details: 1 um, 10 um NaHS, perfusion, 10 min prior to LCA occlusion; cited from earlier work
# Irritable bowel syndrome = details: 25, 50, or 100 mg/kg IP, 10 minutes post IBS model; cited from earlier work
molecule,measurement,setting,value
"S [NaHS, sodium hydrosulfide]",Benefit: intra-cavernous pressure,erectile dysfunction,Increase intra-
same,Benefit: central venous pressure,cardioprotectant,decrease central
same,infarct volume,Cerebral Ischemia,increased to 150% of % of control
same,Benefit: vascular calcification,vascular calcification,reduces vascular
same,Benefit: injury produced by NSAID and ASA,[1],reduces injury
same,"Tail moment (comet assay, DNA damage)",[2]; 1 h after clamping,0.12 §
same,"Tail moment (comet assay, DNA damage)",[2]; 2 h after clamping,0.12 §
same,"Tail moment (comet assay, DNA damage)",[2]; 4 h after clamping,0.14
same,"Tail moment (comet assay, DNA damage)",[2]; 8 h after clamping,0.14
same,"Tail moment (comet assay, DNA damage)",[2]; Before clamping,0.11
same,"Tail moment (comet assay, DNA damage)",[2]; Before infusion,0.125
same,Benefit: cardioprotection,[3],cardioprotective opens
same,Benefit: substance P levels,inflammation,Increases substance P
same,Benefit: inflammation,"[4]; 1-100 uMol/kg IP, 30 min prior to cargeenan injection",inhibits inflammation
O.[Na+].[SH-] [NaHS•xH2O],Benefit: infarct size,[5],"NAHS, limited infarct"
sodium sulfide [Na2S],Benefit: inflammation,"[4]; rat, in vivo, ip",inhibits inflammation
Nc1ccc(O)c(C(=O)Oc2ccc(-c3cc(=S)ss3)cc2)c1 [ATB-429],Benefit: pain and inflammation,Irritable bowel syndrome,Pain killing and some
